In PubChem BioAssay AID256 (DTP/NCI, 2004):
Values joined by “and” are separate entries in the source; they are usually repeats but may differ in a detail not shown here. Equal entries are not always repeated. Inconclusive results and toxic doses are left out. How the source made its calls: active means survival T/C of 150% or more; inactive means T/C below 125% in these data.

Tested on: CD2F1 mice, L1210 leukemia ip, survival T/C
Assay: NCI In Vivo Anticancer Drug Screen. Data for tumor model L1210 Leukemia (intraperitoneal) in CD2F1 (CDF1) mice
Conditions: higher = longer survival
Procedure, shortened: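 Implant tumor; dose compound or vehicle; measure endpoint in both groups; report treated divided by control.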

[1] = endpoint: mean survival time, dose: 100.0 mg/kg/injection, schedule: Q01DX009 (ip), vehicle: saline with Tween-80
[2] = endpoint: mean survival time, dose: 100.0 mg/kg/injection, schedule: Q04DX003 (ip), vehicle: saline with Tween-80
[3] = endpoint: mean survival time, dose: 200.0 mg/kg/injection, schedule: Q01DX009 (ip), vehicle: saline with Tween-80
[4] = endpoint: mean survival time, dose: 200.0 mg/kg/injection, schedule: Q04DX003 (ip), vehicle: saline with Tween-80
[5] = endpoint: mean survival time, dose: 50.0 mg/kg/injection, schedule: Q01DX009 (ip), vehicle: saline with Tween-80
[6] = endpoint: mean survival time, dose: 25.0 mg/kg/injection, schedule: Q01DX009 (ip), vehicle: saline with Tween-80
[7] = endpoint: mean survival time, dose: 400.0 mg/kg/injection, schedule: Q04DX003 (ip), vehicle: saline with Tween-80
[8] = endpoint: mean survival time, dose: 100.0 mg/kg/injection, schedule: Q01DX009 (ip), vehicle: other

Measured: T/C

NC(=O)NC(=O)c1cccc([N+](=O)[O-])c1
inactive: [1] 104 % of control | [2] 97 % of control | [3] 97 % of control | [4] 94 % of control

CC1CCS(=O)(=O)CC1.[Cl][Hg][Cl]
inactive: endpoint: mean survival time, dose: 0.62 mg/kg/injection, schedule: Q04DX003 (ip), vehicle: saline 104 % of control | endpoint: mean survival time, dose: 1.25 mg/kg/injection, schedule: Q04DX003 (ip), vehicle: saline 106 % of control

N#C[Se-].c1ccc([Te+](c2ccccc2)c2ccccc2)cc1
inactive: endpoint: median survival time, dose: 1.56 mg/kg/injection, schedule: Q01DX009 (ip), vehicle: Klucel (hydroxypropylcellulose) (HPC) 109 % of control | endpoint: median survival time, dose: 3.12 mg/kg/injection, schedule: Q01DX009 (ip), vehicle: Klucel (hydroxypropylcellulose) (HPC) 104 % of control | endpoint: median survival time, dose: 6.25 mg/kg/injection, schedule: Q01DX009 (ip), vehicle: Klucel (hydroxypropylcellulose) (HPC) 105 % of control | endpoint: median survival time, dose: 12.5 mg/kg/injection, schedule: Q01DX009 (ip), vehicle: Klucel (hydroxypropylcellulose) (HPC) 103 % of control

O=[N+]([O-])c1ccc2cn[nH]c2c1
inactive: endpoint: mean survival time, dose: 100.0 mg/kg/injection, schedule: Q01DX001 (ip), vehicle: alcohol 92 % of control | endpoint: mean survival time, dose: 200.0 mg/kg/injection, schedule: Q01DX001 (ip), vehicle: alcohol 98 % of control | endpoint: mean survival time, dose: 400.0 mg/kg/injection, schedule: Q01DX001 (ip), vehicle: alcohol 93 % of control

CCCCCCCCCCC[n+]1ccc(C#N)cc1
inactive: endpoint: mean survival time, dose: 9.38 mg/kg/injection, schedule: Q01DX001 (ip), vehicle: saline 105 % of control | endpoint: mean survival time, dose: 18.75 mg/kg/injection, schedule: Q01DX001 (ip), vehicle: saline 98 % of control

[CH3][Sn]([CH3])([CH3])[CH2]CCBr
inactive: endpoint: mean survival time, dose: 0.39 mg/kg/injection, schedule: Q01DX009 (ip), vehicle: saline 107 % of control | endpoint: mean survival time, dose: 0.78 mg/kg/injection, schedule: Q01DX009 (ip), vehicle: saline 107 % of control | endpoint: mean survival time, dose: 50.0 mg/kg/injection, schedule: Q01DX009 (ip), vehicle: saline 89 % of control

CN(C)CCC(=O)C(=Cc1ccc(O)cc1)C(=O)CCN(C)C
inactive: endpoint: median survival time, dose: 12.5 mg/kg/injection, schedule: Q01DX009 (ip), vehicle: saline 104 % of control | endpoint: median survival time, dose: 25.0 mg/kg/injection, schedule: Q01DX009 (ip), vehicle: saline 101 % of control | endpoint: median survival time, dose: 50.0 mg/kg/injection, schedule: Q01DX009 (ip), vehicle: saline 100 % of control | endpoint: median survival time, dose: 100.0 mg/kg/injection, schedule: Q01DX009 (ip), vehicle: saline 97 % of control | endpoint: median survival time, dose: 200.0 mg/kg/injection, schedule: Q01DX009 (ip), vehicle: saline 97 % of control

Cc1cc(C)c(C)c(S(=O)(=O)O)c1C
inactive: [5] 102 % of control | [1] 102 % of control | [2] 101 % of control | [4] 89 % of control

c1ccc(OCCOc2ccccc2)cc1
inactive: endpoint: mean survival time, dose: 50.0 mg/kg/injection, schedule: Q04DX003 (ip), vehicle: saline with Tween-80 98 % of control | [2] 89 % of control | [4] 91 % of control

[Cl][Pt+2][Br].[NH-]CC[NH-]
inactive: endpoint: mean survival time, dose: 0.47 mg/kg/injection, schedule: Q01DX009 (ip), vehicle: saline with Tween-80 115 % of control | endpoint: mean survival time, dose: 0.95 mg/kg/injection, schedule: Q01DX009 (ip), vehicle: saline with Tween-80 105 % of control | endpoint: mean survival time, dose: 1.9 mg/kg/injection, schedule: Q01DX009 (ip), vehicle: saline with Tween-80 110 % of control | endpoint: mean survival time, dose: 3.8 mg/kg/injection, schedule: Q04DX003 (ip), vehicle: saline with Tween-80 101 % of control | endpoint: mean survival time, dose: 7.5 mg/kg/injection, schedule: Q01DX009 (ip), vehicle: saline with Tween-80 94 % of control | endpoint: mean survival time, dose: 7.5 mg/kg/injection, schedule: Q04DX003 (ip), vehicle: saline with Tween-80 121 % of control

CCC(c1ccc2cc(OC)ccc2c1)C(C(=O)O)C(=O)O (centres undefined)
inactive: endpoint: mean survival time, dose: 100.0 mg/kg/injection, schedule: Q04DX003 (ip), vehicle: Klucel (hydroxypropylcellulose) (HPC) 95 % of control | endpoint: mean survival time, dose: 200.0 mg/kg/injection, schedule: Q04DX003 (ip), vehicle: Klucel (hydroxypropylcellulose) (HPC) 93 % of control

COC12CC(COC(=O)c3cncc(Br)c3)CN(C)C1Cc1cn(C)c3cccc2c13 (centres undefined)
inactive: endpoint: mean survival time, dose: 100.0 mg/kg/injection, schedule: Q04DX003 (ip), vehicle: alcohol 105 % of control | endpoint: mean survival time, dose: 200.0 mg/kg/injection, schedule: Q04DX003 (ip), vehicle: alcohol 102 % of control | endpoint: mean survival time, dose: 400.0 mg/kg/injection, schedule: Q04DX003 (ip), vehicle: alcohol 111 % of control

Nc1cccc(C(=O)O)c1C(=O)O
inactive: [6] 93 % of control

[O-][n+]1c(CN2CCCCC2)nc2cccc3c2c1-c1ccccc1-3
inactive: endpoint: mean survival time, dose: 12.5 mg/kg/injection, schedule: Q01DX009 (ip), vehicle: saline with Tween-80 104 % of control | [6] 103 % of control | [5] 103 % of control | [1] 113 % of control | [3] 109 % of control

CCCCCCCCCCCCCCCCOc1ccc(S(=O)(=O)NC(C)(C)C)cc1[N+](=O)[O-]
inactive: [2] 105 % of control | [4] 96 % of control | [7] 94 % of control

Cc1c(OCc2ccccc2)cccc1[N+](=O)[O-]
inactive: [8] 97 % of control | [2] 92 % of control | endpoint: mean survival time, dose: 200.0 mg/kg/injection, schedule: Q01DX009 (ip), vehicle: other 105 % of control | [4] 87 % of control | endpoint: mean survival time, dose: 400.0 mg/kg/injection, schedule: Q01DX009 (ip), vehicle: other 112 % of control | [7] 90 % of control

COc1ccccc1NC(=O)Nc1cccc(Cl)c1
inactive: [1] 95 % of control | [2] 94 % of control | [3] 93 % of control | [4] 97 % of control | endpoint: mean survival time, dose: 400.0 mg/kg/injection, schedule: Q01DX009 (ip), vehicle: saline with Tween-80 88 % of control | [7] 86 % of control

C=CCSc1cccc2ccccc12
inactive: [1] 90 % of control | [2] 104 % of control | [3] 96 % of control | [4] 104 % of control | [7] 106 % of control

C=CCN(N=O)C(=O)OCC
inactive: endpoint: mean survival time, dose: 12.5 mg/kg/injection, schedule: Q01DX009 (ip), vehicle: other 107 % of control | endpoint: mean survival time, dose: 25.0 mg/kg/injection, schedule: Q01DX009 (ip), vehicle: other 107 % of control | endpoint: mean survival time, dose: 50.0 mg/kg/injection, schedule: Q01DX009 (ip), vehicle: other 104 % of control | [8] 113 % of control

CCCCCCCCCCC(CCCCCCCCCC)Cc1ccccc1
inactive: endpoint: mean survival time, dose: 100.0 mg/kg/injection, schedule: Q01DX001 (ip), vehicle: saline 98 % of control | endpoint: mean survival time, dose: 200.0 mg/kg/injection, schedule: Q01DX001 (ip), vehicle: saline 98 % of control | endpoint: mean survival time, dose: 400.0 mg/kg/injection, schedule: Q01DX001 (ip), vehicle: saline 93 % of control

O=C(O)CN(CC(=O)O)C1CCCCC1N(CC(=O)O)CC(=O)O.[Cl][Pd][Cl] (centres undefined)
inactive: endpoint: median survival time, dose: 10.0 mg/kg/injection, schedule: Q04DX003 (ip), vehicle: saline 103 % of control | endpoint: median survival time, dose: 20.0 mg/kg/injection, schedule: Q04DX003 (ip), vehicle: saline 100 % of control | endpoint: median survival time, dose: 40.0 mg/kg/injection, schedule: Q04DX003 (ip), vehicle: saline 103 % of control | endpoint: median survival time, dose: 80.0 mg/kg/injection, schedule: Q04DX003 (ip), vehicle: saline 103 % of control and 106 % of control | endpoint: median survival time, dose: 160.0 mg/kg/injection, schedule: Q04DX003 (ip), vehicle: saline 98 % of control

C1CCC2(CC1)NCCO2
inactive: endpoint: mean survival time, dose: 100.0 mg/kg/injection, schedule: Q01DX009 (ip), vehicle: saline sonified 96 % of control | endpoint: mean survival time, dose: 200.0 mg/kg/injection, schedule: Q01DX009 (ip), vehicle: saline sonified 93 % of control

CCCCCCCCCCCCCCCC[N+](C)(C)CC#CCCl
inactive: endpoint: mean survival time, dose: 6.25 mg/kg/injection, schedule: Q04DX002 (ip), vehicle: saline with Tween-80 96 % of control | endpoint: mean survival time, dose: 12.5 mg/kg/injection, schedule: Q04DX002 (ip), vehicle: saline with Tween-80 88 % of control | endpoint: mean survival time, dose: 25.0 mg/kg/injection, schedule: Q04DX002 (ip), vehicle: saline with Tween-80 88 % of control
